The test concerns the target T1, α4β1 integrin (Homo sapiens, UniProt P05556+P13612).
T1 construct: 2.5×10^5 Jurkat cells in the presence or absence of titrated test compounds; endogenous in cells; host or cells: Jurkat cells
In words: α4β1 Integrin-Dependent Jurkat Cell Adhesion to VCAM-Ig. It is filed as cell-based. Particulars: inhibition of Jurkat cell adhesion to 2d VCAM-1-hFc. On the procedure:
α4β1 Integrin-Dependent Jurkat Cell Adhesion to VCAM-Ig
96 well NUNC plates were coated with F(ab)2 fragment goat anti-human IgG Fcγ-specific antibody [Jackson Immuno Research 109-006-098: 100 μl at 2 μg/ml in 0.1M NaHCO3, pH 8.4], overnight at 4°. The plates were washed (3×) in phosphate-buffered saline (PBS) and then blocked for 1 h in PBS/1% BSA at room temperature on a rocking platform. After washing (3× in PBS) 35 ng/ml of purified 2d VCAM-1-hFc diluted in PBS/1% BSA was added and the plates left for 60 minutes at room temperature on a rocking platform. The plates were washed (3× in PBS) and the assay then performed at 37° for 30 min in a total volume of 200 μl containing 2.5×10^5 Jurkat cells in the presence or absence of titrated test compounds.
Each plate was washed (2×) with medium and the adherent cells were fixed with 100 μl methanol for 10 minutes followed by another wash. 100 μl 0.25% (w/v) Rose Bengal (Sigma R4507) in PBS was added for 5 minutes at room temperature and the plates washed (3×) in PBS. 100 μl 50% (v/v) ethanol in PBS was added and the plates left for 60 min after which the absorbance (570 nm) was measured.

The term IC50 denotes the point on the concentration scale where inhibition reaches its midpoint. Low readings indicate greater potency in that assay, high ones weaker potency in that assay.

Molecules are shown by their SMILES.

T1 sequence (P13612 34-1032): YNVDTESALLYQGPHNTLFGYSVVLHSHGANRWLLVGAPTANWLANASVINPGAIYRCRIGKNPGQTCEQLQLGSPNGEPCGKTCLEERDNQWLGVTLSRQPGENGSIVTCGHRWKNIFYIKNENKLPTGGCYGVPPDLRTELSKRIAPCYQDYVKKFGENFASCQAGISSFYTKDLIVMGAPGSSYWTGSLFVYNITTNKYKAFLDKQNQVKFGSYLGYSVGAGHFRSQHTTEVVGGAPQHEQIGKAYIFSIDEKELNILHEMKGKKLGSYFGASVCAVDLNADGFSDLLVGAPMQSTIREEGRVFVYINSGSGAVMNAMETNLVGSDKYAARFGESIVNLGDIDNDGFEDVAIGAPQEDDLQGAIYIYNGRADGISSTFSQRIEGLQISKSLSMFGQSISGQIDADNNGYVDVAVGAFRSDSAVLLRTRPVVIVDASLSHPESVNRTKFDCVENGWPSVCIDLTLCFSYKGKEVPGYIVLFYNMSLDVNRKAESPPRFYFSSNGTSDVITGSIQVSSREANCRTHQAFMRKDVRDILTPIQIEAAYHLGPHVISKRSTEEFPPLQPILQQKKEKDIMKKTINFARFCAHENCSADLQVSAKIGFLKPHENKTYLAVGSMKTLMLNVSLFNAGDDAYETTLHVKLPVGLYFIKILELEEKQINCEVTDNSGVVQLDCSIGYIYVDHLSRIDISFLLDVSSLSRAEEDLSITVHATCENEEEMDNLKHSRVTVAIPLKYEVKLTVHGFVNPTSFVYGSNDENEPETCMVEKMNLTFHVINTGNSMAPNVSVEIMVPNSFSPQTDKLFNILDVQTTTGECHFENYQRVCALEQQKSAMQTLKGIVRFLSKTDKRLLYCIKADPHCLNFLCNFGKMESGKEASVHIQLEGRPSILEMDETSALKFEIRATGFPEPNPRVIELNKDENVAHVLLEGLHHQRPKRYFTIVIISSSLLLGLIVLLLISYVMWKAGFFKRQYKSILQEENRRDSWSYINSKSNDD
T1 sequence (P05556 21-798): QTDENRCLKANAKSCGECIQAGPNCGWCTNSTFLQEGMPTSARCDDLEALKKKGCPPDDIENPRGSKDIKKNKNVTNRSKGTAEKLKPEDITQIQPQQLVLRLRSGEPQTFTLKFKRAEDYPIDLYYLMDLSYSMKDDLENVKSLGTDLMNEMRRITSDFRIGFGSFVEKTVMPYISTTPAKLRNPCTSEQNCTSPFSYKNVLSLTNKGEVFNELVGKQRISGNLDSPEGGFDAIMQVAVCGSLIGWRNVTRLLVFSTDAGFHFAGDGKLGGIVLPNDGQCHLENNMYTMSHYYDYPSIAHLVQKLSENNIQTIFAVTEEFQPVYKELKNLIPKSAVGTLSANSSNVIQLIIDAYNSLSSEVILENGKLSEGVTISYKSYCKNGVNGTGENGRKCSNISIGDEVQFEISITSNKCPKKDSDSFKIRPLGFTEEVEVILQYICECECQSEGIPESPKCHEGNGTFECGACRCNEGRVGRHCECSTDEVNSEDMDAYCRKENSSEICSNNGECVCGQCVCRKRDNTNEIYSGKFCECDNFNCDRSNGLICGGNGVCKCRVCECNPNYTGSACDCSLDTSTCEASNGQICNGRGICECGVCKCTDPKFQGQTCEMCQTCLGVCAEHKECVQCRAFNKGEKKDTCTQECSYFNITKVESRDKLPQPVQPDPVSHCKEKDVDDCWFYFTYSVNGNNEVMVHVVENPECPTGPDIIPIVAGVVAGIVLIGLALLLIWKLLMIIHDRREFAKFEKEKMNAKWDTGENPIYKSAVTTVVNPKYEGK

Compound `O=C(Nc1ccc(C[C@H](NC2=C(Br)C(=O)C23CCCCC3)C(=O)OCCO)cc1)c1c(Cl)cncc1Cl` [Example 1, 2-Hydroxyethyl (2S)-2-(2-bromo-3-oxo-spiro[3,5]non-1-en-1-ylamino)-3-{4-[(3,5-dichlorolsonicotinoyl)amino]phenyl}propanoate] had an IC50 of 4 nM.

Values taken from US6872719B1, “Phenylalanine enamide derivatives” (Celltech R & D Limited, priority 2002, dated 2005).
